# Test results published in ChEMBL document CHEMBL3509421, “FDA drug approval package for diclofenac acid (NDA 22-202 CP, Ref ID: 3374276)”.
# Columns and labels:
# [1] = Mean Cmax value of diclofenac following single oral dosing of 18 mg Zorvolex capsule in healthy human; format: ADME, organism-based; design: dietary status Fasting, dose 18 mg, dosed compound id 2.46815e+06, dosed compound name Diclofenac, gender Mixed, regimen Single, route oral; settings: both, plasma
# [2] = Mean Tmax of diclofenac following single oral dosing of 25 mg diclofenac potassium softgel capsule in healthy human; format: ADME, organism-based; design: dietary status Fed, dose 25 mg, dosed compound id 2.46815e+06, dosed compound name Diclofenac potassium, gender Mixed, regimen Single, route oral, study doses 25/50 mg; settings: both, plasma
# [3] = (§1) Mean median Tmax value of diclofenac potassium following oral dosing of Cataflam 50 mf tablet in healthy human; format: ADME, organism-based; design: dietary status Fasting, dose 50 mg, dosed compound id 2.46815e+06, dosed compound name Diclofenac potassium, gender Mixed, regimen Single, route oral, study doses 50 mg; settings: both, plasma, 50 mg, read-out: Median Tmax
# clinical [4] = settings: both, human, plasma, po, 18 mg
# [5] = Mean median Tmax value of diclofenac potassium following oral dosing of PRO-513 50 mg sachet in healthy human; format: ADME, organism-based; design: dietary status Fasting, dose 50 mg, dosed compound id 2.46815e+06, dosed compound name Diclofenac potassium, gender Mixed, regimen Single, route oral, study doses 50 mg; settings: both, plasma, read-out: Median Tmax
# [6] = Mean Cmax of diclofenac following single oral dosing of 50 mg diclofenac potassium softgel capsule in healthy human; format: ADME, organism-based; design: dietary status Fasting, dose 50 mg, dosed compound id 2.46815e+06, dosed compound name Diclofenac potassium, gender Mixed, regimen Single, route oral, study doses 25/50 mg; settings: both, plasma
# [7] = (§2) Mean maximum Tmax value of diclofenac potassium following oral dosing of Cataflam 50 mf tablet in healthy human; format: ADME, organism-based; design: dietary status Fasting, dose 50 mg, dosed compound id 2.46815e+06, dosed compound name Diclofenac potassium, gender Mixed, regimen Single, route oral, study doses 50 mg; settings: both, plasma, 50 mg, read-out: Maximum Tmax
# [8] = Mean Tmax of diclofenac following single oral dosing of 50 mg Cataflam in healthy human; format: ADME, organism-based; design: dietary status Fasting, dose 50 mg, dosed compound id 2.46815e+06, dosed compound name Diclofenac potassium, gender Mixed, regimen Single, route oral, study doses 50 mg; settings: both, plasma
# [9] = Maximum tmax of diclofenac following single oral dosing of 35 mg Zorvolex capsule in healthy human; format: ADME, organism-based, Plasma; design: dietary status Fasting, dose 35 mg, dosed compound id 2.46815e+06, dosed compound name Diclofenac, gender Mixed, regimen Single, route oral; settings: in vivo
# [10] = Mean Tmax of diclofenac following single oral dosing of 50 mg diclofenac potassium softgel capsule in healthy human; format: ADME, organism-based; design: dietary status Fed, dose 50 mg, dosed compound id 2.46815e+06, dosed compound name Diclofenac potassium, gender Mixed, regimen Single, route oral, study doses 25/50 mg; settings: both, plasma
# [11] = Mean AUC(0-infinity) of diclofenac following single oral dosing of 50 mg diclofenac potassium soft gelatin capsule in healthy human; format: ADME, organism-based; design: time infinity, dietary status Fasting, dose 50 mg, dosed compound id 2.46815e+06, dosed compound name Diclofenac potassium, gender Mixed, regimen Single, route oral, study doses 25/50 mg; settings: both, plasma, read-out: AUC (0-infinity)
# [12] = (§3) Geometric mean for AUC (0-t) of diclofenac following single oral dosing of 50 mg Cataflam tablet in healthy human; format: ADME, organism-based; design: dietary status Fasting, dose 50 mg, dosed compound id 2.46815e+06, dosed compound name Diclofenac potassium, gender Mixed, regimen Single, route oral; settings: both, plasma
# [13] = Minimum tmax of diclofenac following single oral dosing of 18 mg Zorvolex capsule in healthy human; format: ADME, organism-based, Plasma; design: dietary status Fasting, dose 18 mg, dosed compound id 2.46815e+06, dosed compound name Diclofenac, gender Mixed, regimen Single, route oral; settings: in vivo
# [14] = as §2; format: ADME, organism-based; design: dietary status Fed, dose 50 mg, dosed compound id 2.46815e+06, dosed compound name Diclofenac potassium, gender Mixed, regimen Single, route oral, study doses 50 mg; settings: both, plasma, 50 mg, read-out: Maximum Tmax
# [15] = Mean AUC (0-t) value of diclofenac following single oral dosing of 50 mg Cataflam tablet in healthy human; format: ADME, organism-based; design: dietary status Fed, dose 50 mg, dosed compound id 2.46815e+06, dosed compound name Diclofenac potassium, gender Mixed, regimen Single, route oral; settings: both, plasma
# [16] = Median tmax of diclofenac following single oral dosing of 50 mg Cataflam tablet in healthy human; format: ADME, organism-based; design: dietary status Fed, dose 50 mg, dosed compound id 2.46815e+06, dosed compound name Diclofenac potassium, gender Mixed, regimen Single, route oral; settings: both, plasma, read-out: Median Tmax
# [17] = Median tmax of diclofenac following single oral dosing of 35 mg Zorvolex capsule in healthy human; format: ADME, organism-based; design: dietary status Fasting, dose 35 mg, dosed compound id 2.46815e+06, dosed compound name Diclofenac, gender Mixed, regimen Single, route oral; settings: both, plasma, read-out: Median Tmax
# [18] = Mean apparent terminal elimination rate constant value of diclofenac following single oral dosing of 35 mg Zorvolex capsule in healthy human; format: ADME, organism-based, Plasma; design: dietary status Fed, dose 35 mg, dosed compound id 2.46815e+06, dosed compound name Diclofenac, gender Mixed, regimen Single, route oral; settings: in vivo
# [19] = Mean AUC (0-infinity) of diclofenac following single oral dosing of 25 mg diclofenac potassium softgel capsule in healthy human; format: ADME, organism-based; design: time infinity, dietary status Fed, dose 25 mg, dosed compound id 2.46815e+06, dosed compound name Diclofenac potassium, gender Mixed, regimen Single, route oral, study doses 25/50 mg; settings: both, plasma, read-out: AUC (0-infinity)
# [20] = Median tmax of diclofenac following single oral dosing of 18 mg Zorvolex capsule in healthy human; format: ADME, organism-based; design: dietary status Fasting, dose 18 mg, dosed compound id 2.46815e+06, dosed compound name Diclofenac, gender Mixed, regimen Single, route oral; settings: both, plasma, read-out: Median Tmax
# [21] = Geometric mean for apparent terminal elimination rate constant of diclofenac following single oral dosing of 18 mg Zorvolex capsule in healthy human; format: ADME, organism-based, Plasma; design: dietary status Fasting, dose 18 mg, dosed compound id 2.46815e+06, dosed compound name Diclofenac, gender Mixed, regimen Single, route oral; settings: in vivo
# [22] = Mean AUC (0-infinity) value of diclofenac following single oral dosing of 18 mg Zorvolex capsule in healthy human; format: ADME, organism-based; design: time infinity, dietary status Fasting, dose 18 mg, dosed compound id 2.46815e+06, dosed compound name Diclofenac, gender Mixed, regimen Single, route oral; settings: both, plasma, read-out: AUC (0-infinity)
# [23] = Mean minimum Tmax value of diclofenac potassium following oral dosing of Cataflam 50 mf tablet in healthy human; format: ADME, organism-based; design: dietary status Fed, dose 50 mg, dosed compound id 2.46815e+06, dosed compound name Diclofenac potassium, gender Mixed, regimen Single, route oral, study doses 50 mg; settings: both, plasma, 50 mg, read-out: Minimum Tmax
# [24] = Mean Tmax of diclofenac following single oral dosing of 25 mg diclofenac potassium soft gelatin capsule in healthy human; format: ADME, organism-based; design: dietary status Fasting, dose 25 mg, dosed compound id 2.46815e+06, dosed compound name Diclofenac potassium, gender Mixed, regimen Single, route oral, study doses 25/50 mg; settings: both, plasma
# clinical [25] = settings: both, human, plasma, po, 50 mg
# [26] = Mean Kel of diclofenac potassium following oral dosing of PRO-513 50 mg sachet in healthy human; format: ADME, organism-based; design: dietary status Fasting, dose 50 mg, dosed compound id 2.46815e+06, dosed compound name Diclofenac potassium, gender Mixed, regimen Single, route oral, study doses 50 mg; settings: both, plasma
# [27] = Mean AUC(0-t) of diclofenac potassium following oral dosing of Cataflam 50 mf tablet in healthy human; format: ADME, organism-based; design: dietary status Fed, dose 50 mg, dosed compound id 2.46815e+06, dosed compound name Diclofenac potassium, gender Mixed, regimen Single, route oral, study doses 50 mg; settings: both, plasma, 50 mg
# [28] = as §1; format: ADME, organism-based; design: dietary status Fed, dose 50 mg, dosed compound id 2.46815e+06, dosed compound name Diclofenac potassium, gender Mixed, regimen Single, route oral, study doses 50 mg; settings: both, plasma, 50 mg, read-out: Median Tmax
# clinical [29] = settings: both, human, plasma, po, 50 mg; remark: listed apart in the source
# [30] = Minimum tmax of diclofenac following single oral dosing of 50 mg Cataflam tablet in healthy human; format: ADME, organism-based, Plasma; design: dietary status Fed, dose 50 mg, dosed compound id 2.46815e+06, dosed compound name Diclofenac potassium, gender Mixed, regimen Single, route oral; settings: in vivo
# [31] = as §3; format: ADME, organism-based; design: dietary status Fed, dose 50 mg, dosed compound id 2.46815e+06, dosed compound name Diclofenac potassium, gender Mixed, regimen Single, route oral; settings: both, plasma
# [32] = Maximum tmax of diclofenac following single oral dosing of 18 mg Zorvolex capsule in healthy human; format: ADME, organism-based, Plasma; design: dietary status Fasting, dose 18 mg, dosed compound id 2.46815e+06, dosed compound name Diclofenac, gender Mixed, regimen Single, route oral; settings: in vivo
smiles,measurement,setting,value
O=C(O)Cc1ccccc1Nc1c(Cl)cccc1Cl [DICLOFENAC],Cmax,[1],0.496 µg/mL
same,Tmax,[2],1.02 h
same,Tmax,[3],0.5 h
same,half-life,clinical [4],1.87 h
same,Tmax,[5],0.25 h
same,Cmax,[6],2.37 µg/mL
same,Tmax,[7],4 h
same,Tmax,[8],0.93 h
same,Maximum Tmax,[9],4 h
same,Tmax,[10],1.28 h
same,AUC(0-inf),[11],1.23 µg·h/mL
same,AUC(0-t),[12],1.29 µg·h/mL
same,Minimum Tmax,[13],0.5 h
same,Tmax,[14],8 h
same,AUC(0-t),[15],1.18 µg·h/mL
same,Tmax,[16],2.33 h
same,Tmax,[17],1 h
same,lambda-z,[18],0.371 h⁻¹
same,AUC(0-inf),[19],0.713 µg·h/mL
same,Tmax,[20],1 h
same,lambda-z,[21],0.384 h⁻¹
same,AUC(0-inf),[22],0.499 µg·h/mL
same,Tmax,[23],0.33 h
same,Tmax,[24],0.45 h
same,half-life,clinical [25],2.15 h
same,k el,[26],0.000156 s⁻¹
same,AUC(0-t),[27],1.06 µg·h/mL
same,Tmax,[28],1.25 h
same,half-life,clinical [29],1.45 h
same,Minimum Tmax,[30],0.5 h
same,AUC(0-t),[31],1.15 µg·h/mL
same,Maximum Tmax,[32],4.5 h
